Source: patent US20030007996A1, “Therapies for the prevention and treatment of diabetes and obesity” (priority 2001, published 2003)

Assays:
soleus muscle strips = assay: 3-O-methyl glucose transport (3MGT) in incubated soleus muscle strips (Example 12); format: cell-based, rat; conditions: for effect on 3MGT: 10 minute incubation
Description: Male Sprague-Dawley rats are used in all the following examples. Soleus muscle strips are incubated as described by Bonen et al (1992), Wilkes and Bonen (2000) and Bonen et al (1994) to determine glucose transport. Basal and insulin-stimulated 3-O-methyl glucose transport (3MGT) is examined in a dose dependent (0-10 nM) manner during a 10 minute incubation period in appropriate buffer (Bonen et al., 1994). Comparison of this dose-response relationship of insulin, and the A1 agonist CPA, and A2 agonist DPMA on 3MGT is conducted. 3MGT rates are linear for up to 20 minutes. The 10 minute period is therefore a convenient time point to acquire sufficient counts in the muscle at a reasonable cost of using radiolabelled 3MGT.
Optimal stimulating concentrations of insulin, CPA, and DPMA are established for 3MGT.

Akt = assay: Signaling protein activation in isolated rodent muscles (Example 14); format: cell-based, rat
Description: Experiments with insulin, CPA and DPMA are performed in isolated muscles using optimal stimulating concentrations to determine which signaling proteins are activated. For this purpose, isolated rodent muscles are incubated with either basal or maximal insulin concentrations with and without either CPA or DPMA. Glucose transport is determined by 3MGT, measured over 10 minutes. The muscle samples are analyzed for IRTK, IRS-1 associated P13 kinase, p38 MAP kinase and Akt activities. The critical exposure time to activate signaling proteins is established in pilot work. […] Optimal exposure times required for signaling protein activation by CPA and DPMA are established. […] We establish that blocking P13-kinase with LY29004 blocks downstream activation of Akt by insulin, and by CPA and DPMA.

[1] = tested on: A1 and A2 adenosine receptors; assay: Adenosine receptor-stimulated adenylate cyclase activity (cAMP) in skeletal muscle homogenates (Example 4); format: biochemical, rat
Description: The purpose of this study was to investigate the presence of A1 and A2 adenosine receptors (AR) in rat and human skeletal muscle. Adenosine receptor-stimulated adenylate cyclase activity studies were conducted to determine cAMP responses in the presence of AR agonists using rat skeletal muscle homogenates. Subsequently, Western blotting experiments were conducted to identify the A1 and A2 receptor proteins in rodent and human skeletal muscle samples. […] There was little effect of R-PIA (an A1 AR agonist) on cAMP levels in any fiber type. […] A2a expression was highest in the liver compared to muscle and heart homogenates.

lean sedentary males = assay: Hyperinsulinemic euglycemic clamp after caffeine ingestion (Example 1); format: in vivo, human
Description: (§1) The methods and materials employed in this invention are common to those skilled in the art. The methods and materials for the hyperinsulinemic euglycemic glucose clamp test are found in Greer et al., 2001. The methods and materials for the oral glucose tolerance test (OGTT) are described in Graham et al., 2001.
Trials were separated by one week. Prior to each clamp session, subjects withdrew from methylxanthine containing products for 48 hours.

young, fit, adult males = assay: Oral glucose tolerance test (OGTT) after caffeine ingestion in lean males (Example 2); format: in vivo, human
Excerpt: as §1
Young, fit, adult males (n=18) underwent two oral glucose tolerance tests (OGTT). […] Following the OGTT all of these parameters increased (p≦0.05) for the duration of the OGTT. […] During the OGTT these decreased to match those of the placebo trial. […] The data support the hypothesis that caffeine ingestion impairs glucose disposal.

healthy male subjects = assay: OGTT after alkaloid caffeine, caffeinated coffee, decaffeinated coffee or placebo (Example 3); format: in vivo, human; conditions: two hours of the OGTT; n=10
Description: as §1
Venous blood samples were taken at −30, 0 (treatment given), 60 (OGTT administered), 75, 90, 120, 150 and 180 minutes and were analyzed for glucose, insulin, C peptide, glycerol, free fatty acids and lactate. Area under the curve (AUC) were calculated for the two hours of the OGTT. […] This component acts as an adenosine receptor […].

[2] = tested on: obese (BMI>30) nondiabetic males; assay: OGTT after caffeine ingestion in obese nondiabetic males (Example 5); format: in vivo, human; conditions: obese males (n=4)
[3] = tested on: obese (BMI=30-38 kg/m2) men; assay: OGTT after caffeine before and after a weight loss program (Example 6); format: in vivo, human
[4] = tested on: young, sedentary, obese males; assay: OGTT after caffeine in obese, resting males (Example 7); format: in vivo, human; conditions: p<0.05
[5] = tested on: obese and Type 2 diabetic males; assay: OGTT with and without caffeine in lean, obese and Type 2 diabetic males (Example 8); format: in vivo, human
Excerpt: The results will be compared to the current data base; containing data (28,40) collected in an identical fashion for 30 lean (BMI of less than 25) males age 18-30 years. Lean subjects have BMI of less than 25, the obese are class I (BMI 30-34), abdominal obese (waist circumference>100 cm) and the diabetics have the same anthropometry. The diabetics are volunteers who have been well controlled for a year, with glycosylated hemoglobin levels between 6.5-9.5% for at least three months. They have similar levels of obesity, are not insulin-dependent, and are not on oral hypoglycemic agents, but rather diet-controlled. Their participation is medically approved and they are screened for hypertension and angina. The area under the curve for insulin and C-peptide is greater for the obese and even greater for the diabetic subjects. […] Data also includes plasma catecholamines, methylxanthines, FFA, and glycerol.

young type 1 diabetics = assay: Caffeine followed by high glycemic index cereal in type 1 diabetics (Example 18); format: in vivo, human
Description: Young type 1 diabetics (5 females and 1 male) who had been diagnosed for an average of 8.3±5.4 years volunteered to perform two trials in a randomized, double blind study design. Subjects were given either placebo or caffeine-containing (5 mg/kg) capsules and 30 minutes later they self-administered the appropriate amount of insulin for the ingestion of 60 g of carbohydrates in the form of a high glycemic cereal with 125 ml of 1% milk. The amount of self-administered insulin and injection site were the same for both trials. Venous blood glucose was measured prior to capsule ingestion, prior to insulin injection, and immediately following ingestion of the cereal meal (t=0 minutes). Blood glucose was then measured every 15 minutes for the next 2.5 hours.

[6] = tested on: obese type 2 diabetic males; assay: OGTT with and without caffeine in obese type 2 diabetic males (Example 19); format: in vivo, human
[7] = caffeine 5 mg/kg 1 h before 75 g dextrose, p≦0.05
[8] = last 90 minutes of the OGTT, p≦0.05

In the case of `OC[C@H]1O[C@@H](n2cnc3c(NC4CCCC4)ncnc32)[C@H](O)[C@@H]1O` [CPA, N6-cyclopentyladenosine], the “effect on 3MGT” value (soleus muscle strips) was “increases”.
`COc1cc(OC)cc(C(CNc2ncnc3c2ncn3[C@@H]2O[C@H](CO)[C@@H](O)[C@H]2O)c2ccccc2C)c1` (stereo partly shown) [DPMA, N-[2-(3,5-dimethoxy-phenyl)-2-(2-methylphenyl)ethyl]-adenosine] was tested, and the “effect on 3MGT” value (soleus muscle strips) was “increases”.
`O=c1cc(N2CCOCC2)oc2c(-c3ccccc3)cccc12` [LY29004] was tested, and the “effect on CPA- and DPMA-induced increases in 3MGT” value (soleus muscle strips) was “inhibited”, the “effect on insulin stimulated 3MGT” value (soleus muscle strips) was “inhibited” and the “effect on downstream activation of Akt by insulin, and by CPA and DPMA” value (Akt) was “blocks”.
`CCNC(=O)[C@H]1O[C@@H](n2cnc3c(N)ncnc32)[C@H](O)[C@@H]1O` [NECA] was tested, and the “effect on cAMP production” value ([1]; glycolytic samples) was “no effect” and the “increase in cAMP production” value ([1]; rat oxidative muscle homogenates) was 7.5 fold.
`C[C@H](Cc1ccccc1)Nc1ncnc2c1ncn2[C@@H]1O[C@H](CO)[C@@H](O)[C@H]1O` [R-PIA] was tested, and the “effect on cAMP levels” value ([1]; any fiber type) was “little effect”.
In the case of `Cn1c(=O)c2c(ncn2C)n(C)c1=O` [caffeine], the “decrease in carbohydrate storage compared to placebo” value (lean sedentary males; caffeine 5 mg/kg) was 35%, the “decrease in glucose disposal” value (lean sedentary males; caffeine 5 mg/kg vs placebo) was 24% and the glucose disposal (lean sedentary males; caffeine 5 mg/kg, placebo 8.42+/−0.63, n=9) was 6.38 ± 0.76 mg/kg/min. For the same compound, the “serum fatty acids, glycerol and plasma epinephrine” value (young, fit, adult males; after caffeine ingestion, before OGTT, p≦0.05) was “increase”, the “serum C peptide area under the curve, greater than placebo” value (young, fit, adult males; [7]) was 37% and the “serum insulin area under the curve, greater than placebo” value (young, fit, adult males; [7]) was 60%. For the same compound, the “blood glucose level vs placebo” value (young, fit, adult males; during OGTT) was “no differences between trials”, the “serum C peptide concentration vs placebo” value (young, fit, adult males; [8]) was “significantly greater” and the “serum insulin concentration vs placebo” value (young, fit, adult males; [8]) was “significantly greater”. The “AUC for GLU” value (young, fit, adult males; lean males (n=18), OGTT) was 168 mM/2 h, the “insulin AUC” value (young, fit, adult males; lean males (n=18), OGTT, placebo 3274) was 5242 uU/ml/2h and the “AUC for glucose, comparison between treatments” value (healthy male subjects) was “higher than both CC (p<0.04) and DC (p<0.01)”. The “AUC for insulin, comparison between treatments” value (healthy male subjects) was “higher AUC for insulin (see FIG. 5) than both PL (p<0.002) and DC (p<0.001)”, the “AUC for peptide C, comparison between treatments” value (healthy male subjects) was “higher values than both PL (p<0.02) and DC (p<0.001)” and the “AUC for GLU” value [2] was 167 mM/2 h. The “insulin AUC” value ([2]; placebo 6938) was 10,968 uU/ml/2 h, the “increase in insulin during the OGTT compared to placebo” value ([3]; following the twelve week intervention, p=0.056) was “greater” and the “blood glucose vs placebo” value ([3]; prior to the twelve week intervention) was “no differences”. For the same compound, the “insulin response during the OGTT vs placebo” value ([3]; prior to the twelve week intervention, caffeine 5 mg/kg, p=0.043) was “greater”, the “glucose area under the curve during the OGTT” value ([4]; caffeine 5 mg/kg, n=28, placebo 188.5) was 260.1 mM/2h and the “insulin area under the curve during the OGTT” value ([4]; caffeine 5 mg/kg, n=28, placebo 7037.9) was 9455.8 uIU/ml/2h. For the same compound, the “glucose level vs placebo” value ([4]; last 90 minutes of the OGTT) was “significantly greater”, the “insulin level vs placebo” value ([4]; last 105 minutes of the OGTT) was “significantly greater” and the “area under the curves for insulin and C-peptide following caffeine ingestion” value ([5]; lean subjects) was “increased”. For the same compound, the “area under the curves for insulin and C-peptide following caffeine ingestion” value ([5]; obese and diabetic subjects, relative to lean) was “even greater response”, the “difference in the glucose area under the curve, caffeine vs placebo” value (young type 1 diabetics; caffeine 5 mg/kg) was 72% and the “glucose area under the curve” value (young type 1 diabetics; caffeine 5 mg/kg capsules, placebo 347±7.4, p<0.01) was 598±7.4 mM/2.5 h. For the same compound, the blood glucose ([6]; 180 minutes following ingestion of the OGTT, caffeine 5 mg/kg, placebo 7.4±1.0) was 8.4 ± 0.8 mM and the “blood glucose compared with placebo” value ([6]; last hour of the OGTT (120 to 180 minutes), p<0.05) was “significantly elevated”.
